In ChEMBL document CHEMBL1137403, “Discovery of 2-[4-{{2-(2S,5R)-2-cyano-5-ethynyl-1-pyrrolidinyl]-2-oxoethyl]amino]- 4-methyl-1-piperidinyl]-4-pyridinecarboxylic acid (ABT-279): a very potent, selective, effective, and well-tolerated inhibitor of dipeptidyl peptidase-IV, useful for the treatment of diabetes” (J Med Chem, 2006) one finds Ki data, which are given here for four molecules.

Assay [1] concerns the target Dipeptidyl peptidase 8 (Homo sapiens, UniProt Q6V1X1).
Assay [2] addresses Dipeptidyl peptidase 9 (Homo sapiens, UniProt Q86TI2).
In assay [3] the target is Dipeptidyl peptidase 2 (Homo sapiens, UniProt Q9UHL4). The experiment in a line: Inhibition of DPP7.
In assay [4] the target is T1, Prolyl endopeptidase (Homo sapiens, UniProt P48147).
T1 sequence (P48147 whole entry): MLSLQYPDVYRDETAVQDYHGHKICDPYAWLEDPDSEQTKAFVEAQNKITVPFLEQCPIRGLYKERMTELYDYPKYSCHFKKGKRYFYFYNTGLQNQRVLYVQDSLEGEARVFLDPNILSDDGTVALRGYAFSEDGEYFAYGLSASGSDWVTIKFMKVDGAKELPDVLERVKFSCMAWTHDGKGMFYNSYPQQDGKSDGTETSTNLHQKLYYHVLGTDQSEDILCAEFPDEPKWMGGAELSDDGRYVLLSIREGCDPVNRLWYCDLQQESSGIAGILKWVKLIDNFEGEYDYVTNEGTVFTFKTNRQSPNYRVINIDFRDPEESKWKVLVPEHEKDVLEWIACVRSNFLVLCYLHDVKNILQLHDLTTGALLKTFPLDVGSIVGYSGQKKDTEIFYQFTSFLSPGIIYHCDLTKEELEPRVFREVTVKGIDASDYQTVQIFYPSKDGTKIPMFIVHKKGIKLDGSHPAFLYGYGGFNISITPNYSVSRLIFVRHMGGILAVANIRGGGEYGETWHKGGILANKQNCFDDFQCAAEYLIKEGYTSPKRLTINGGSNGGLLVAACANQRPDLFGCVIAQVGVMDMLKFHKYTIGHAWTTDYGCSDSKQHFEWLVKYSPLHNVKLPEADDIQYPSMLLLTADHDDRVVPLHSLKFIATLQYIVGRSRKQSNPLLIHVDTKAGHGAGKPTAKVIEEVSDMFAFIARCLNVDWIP
Put plainly: Inhibition of POP.

The target in assay [5] is T2, Prolyl endopeptidase FAP (Homo sapiens, UniProt Q12884).
T2 sequence (Q12884 whole entry): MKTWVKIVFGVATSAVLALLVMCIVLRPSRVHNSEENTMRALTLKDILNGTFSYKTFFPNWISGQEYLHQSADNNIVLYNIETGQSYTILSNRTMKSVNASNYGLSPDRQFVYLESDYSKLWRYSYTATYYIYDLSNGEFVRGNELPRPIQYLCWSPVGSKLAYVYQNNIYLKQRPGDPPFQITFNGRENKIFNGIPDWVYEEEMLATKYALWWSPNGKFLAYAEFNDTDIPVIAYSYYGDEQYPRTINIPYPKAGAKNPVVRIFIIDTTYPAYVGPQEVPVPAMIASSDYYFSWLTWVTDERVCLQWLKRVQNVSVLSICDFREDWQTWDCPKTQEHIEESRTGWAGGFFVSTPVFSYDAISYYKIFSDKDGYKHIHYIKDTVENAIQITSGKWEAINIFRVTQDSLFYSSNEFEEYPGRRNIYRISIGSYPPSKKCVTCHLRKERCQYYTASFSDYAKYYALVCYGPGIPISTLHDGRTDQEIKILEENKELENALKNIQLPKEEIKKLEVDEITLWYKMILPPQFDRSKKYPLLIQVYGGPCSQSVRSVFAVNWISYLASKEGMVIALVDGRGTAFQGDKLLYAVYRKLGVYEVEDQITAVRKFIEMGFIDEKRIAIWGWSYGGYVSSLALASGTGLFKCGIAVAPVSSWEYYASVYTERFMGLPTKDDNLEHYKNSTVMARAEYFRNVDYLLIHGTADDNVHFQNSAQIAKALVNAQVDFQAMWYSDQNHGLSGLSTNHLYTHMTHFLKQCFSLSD
The experiment in a line: Inhibition of FAPalpha.

Sequence of Dipeptidyl peptidase 9 (Q86TI2 whole entry): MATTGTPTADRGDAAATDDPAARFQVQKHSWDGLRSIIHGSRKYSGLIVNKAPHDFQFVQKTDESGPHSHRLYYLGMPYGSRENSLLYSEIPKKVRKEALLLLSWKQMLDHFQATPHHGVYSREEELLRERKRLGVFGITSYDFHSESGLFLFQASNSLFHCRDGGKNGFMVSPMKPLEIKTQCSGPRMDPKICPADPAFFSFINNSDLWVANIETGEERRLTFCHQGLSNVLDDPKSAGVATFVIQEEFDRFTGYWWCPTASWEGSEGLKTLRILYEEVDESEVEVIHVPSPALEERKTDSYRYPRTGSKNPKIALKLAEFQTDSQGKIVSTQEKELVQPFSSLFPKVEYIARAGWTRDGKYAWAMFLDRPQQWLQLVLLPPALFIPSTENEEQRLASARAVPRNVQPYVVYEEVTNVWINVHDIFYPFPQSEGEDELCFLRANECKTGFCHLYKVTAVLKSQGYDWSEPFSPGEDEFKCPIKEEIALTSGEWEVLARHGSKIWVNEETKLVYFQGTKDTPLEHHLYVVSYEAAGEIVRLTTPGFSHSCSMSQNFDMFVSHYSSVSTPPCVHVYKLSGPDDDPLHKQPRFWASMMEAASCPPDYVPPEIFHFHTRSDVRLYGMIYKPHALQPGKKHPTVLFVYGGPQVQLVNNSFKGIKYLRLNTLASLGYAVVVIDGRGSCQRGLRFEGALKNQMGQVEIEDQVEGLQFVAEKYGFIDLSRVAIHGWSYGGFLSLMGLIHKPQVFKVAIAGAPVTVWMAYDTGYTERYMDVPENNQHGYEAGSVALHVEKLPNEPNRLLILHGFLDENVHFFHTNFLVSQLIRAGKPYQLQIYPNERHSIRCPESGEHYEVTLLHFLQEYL
Sequence of Dipeptidyl peptidase 8 (Q6V1X1 whole entry): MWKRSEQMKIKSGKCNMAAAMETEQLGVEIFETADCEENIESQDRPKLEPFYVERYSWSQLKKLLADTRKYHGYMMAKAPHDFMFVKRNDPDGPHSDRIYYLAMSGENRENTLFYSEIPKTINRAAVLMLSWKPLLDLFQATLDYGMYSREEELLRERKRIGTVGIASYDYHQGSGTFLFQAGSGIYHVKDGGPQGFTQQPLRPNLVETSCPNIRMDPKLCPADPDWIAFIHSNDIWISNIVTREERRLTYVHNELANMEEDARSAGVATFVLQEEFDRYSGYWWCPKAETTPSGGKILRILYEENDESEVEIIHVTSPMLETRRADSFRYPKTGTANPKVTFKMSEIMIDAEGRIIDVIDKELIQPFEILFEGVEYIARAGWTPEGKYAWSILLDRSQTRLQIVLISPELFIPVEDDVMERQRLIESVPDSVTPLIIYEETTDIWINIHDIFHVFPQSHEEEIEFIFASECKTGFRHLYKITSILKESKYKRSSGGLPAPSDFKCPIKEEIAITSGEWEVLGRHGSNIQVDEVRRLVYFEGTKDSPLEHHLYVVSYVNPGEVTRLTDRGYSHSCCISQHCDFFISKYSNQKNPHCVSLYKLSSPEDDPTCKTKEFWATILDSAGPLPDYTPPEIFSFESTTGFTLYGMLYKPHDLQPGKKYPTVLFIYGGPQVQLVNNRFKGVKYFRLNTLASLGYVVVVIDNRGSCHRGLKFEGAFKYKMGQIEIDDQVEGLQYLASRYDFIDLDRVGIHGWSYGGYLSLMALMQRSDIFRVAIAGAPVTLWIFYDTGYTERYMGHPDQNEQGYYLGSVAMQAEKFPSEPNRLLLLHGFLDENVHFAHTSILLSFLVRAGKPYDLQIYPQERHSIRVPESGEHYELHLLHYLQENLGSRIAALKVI

Broadly, the Ki is a measure of affinity in units of concentration, obtained from inhibition or displacement. Low values mean a stronger hold on the target, high ones a looser hold on the target. Turning to `C#C[C@H]1CC[C@@H](C#N)N1C(=O)CNC1(C)CCN(c2ccc(C#N)cn2)CC1`, the Ki in assay [1], in assay [2], in assay [3], in assay [4] and in assay [5] was more than 30 µM throughout.
In assay [2], `C#C[C@H]1CC[C@@H](C#N)N1C(=O)[C@@H](N)C1CCCC1` showed a Ki of more than 30 µM.
Consider `C#C[C@H]1CC[C@@H](C#N)N1C(=O)CN[C@H]1CC[C@H](Oc2ccc(C#N)cn2)CC1` (mixture of isomers), for which the Ki in assay [1] is more than 30 µM.
Consider `C#C[C@H]1CC[C@@H](C#N)N1C(=O)CNC(C)(C)C`, for which the Ki in assay [1] and in assay [2] was more than 30 µM in each case.
